Molecular target: C-C chemokine receptor type 2 (Homo sapiens, UniProt P41597)
Experiment: Binding Assay: MCP-1 Receptor Binding Assay in THP-1 Cells Human monocytic cell line THP-1 cells were obtained from American Type Culture Collection (Manassas, Va., USA). The THP-1 cells were grown in RPMI-1640 (RPMI: Roswell Park Memorial Institute Medium-cell culture growth media) supplemented with 10% fetal bovine serum in a humidified 5% CO2 atmosphere at 37 C. The cell density was maintained between 0.5x10^6 cells/mL.THP-1 (cells were incubated with 0.5 nM 125I labeled MCP-1 (Perkin-Elmer Life Sciences, Inc. Boston, Mass.) in the presence of varying concentrations of either unlabeled MCP-1 (R & D Systems, Minneapolis, Minn.) or test compound for 2 hours at 30 C. in a 96 well plate. Cells were then harvested onto a filter plate, dried, and 20 uL of Microscint 20 was added to each well. Plates were counted in a TopCount NXT, Microplate Scintillation & Luminescence Counter (Perkin-Elmer Life Sciences, Inc. Boston, Mass.).
Type: cell-based

Sequence of C-C chemokine receptor type 2 (P41597 whole entry): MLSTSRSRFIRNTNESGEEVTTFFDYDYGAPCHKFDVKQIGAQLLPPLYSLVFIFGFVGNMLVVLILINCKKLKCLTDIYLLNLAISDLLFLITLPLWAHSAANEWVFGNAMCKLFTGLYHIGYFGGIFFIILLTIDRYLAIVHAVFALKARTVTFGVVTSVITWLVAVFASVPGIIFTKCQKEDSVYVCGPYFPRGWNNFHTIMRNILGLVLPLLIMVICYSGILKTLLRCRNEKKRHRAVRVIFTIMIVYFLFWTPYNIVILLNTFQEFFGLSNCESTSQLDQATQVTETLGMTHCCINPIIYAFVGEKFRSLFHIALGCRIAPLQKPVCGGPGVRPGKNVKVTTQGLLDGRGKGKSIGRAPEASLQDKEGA

## CC1(C)Cc2cc(/C=C/C(=O)N3CCC(C(NC4CCC(c5c[nH]c6ccccc56)CC4)C(N)=O)CC3)ccc2O1 (stereo unspecified)
  IC50: 1.1 µM

— ChEMBL document CHEMBL3638678, “4-substituted-cyclohexylamino-4-piperidinyl-acetamide antagonists of CCR2” (2014)
